Results from PMC11714206, “Massively Parallel Screening of Toll/Interleukin‐1 Receptor (TIR)‐Derived Peptides Reveals Multiple Toll‐Like Receptors (TLRs)‐Targeting Immunomodulatory Peptides” (Advanced Science, 2024).

Biological target: T1, MyD88^TIR (Homo sapiens, UniProt Q99836)
T1 construct: MyD88 (residues 148–296); 6xHis; made in house; host or cells: E. coli BL21 (DE3)
Experiment: T‐Surf phage library (P8 and P3) selection against MyD88^TIR, four rounds, NGS read counts
Assay type: binding
Details: for P3_MyD88 Rank (after) / P3_MyD88 Rank (before): P3 library; for Population: 4th round of selection against MyD88 TIR, share of NGS reads; for P8_MyD88 Rank (after) / P8_MyD88 Rank (before): P8 library
Description: T‐Surf libraries were screened against the immobilized TIR domains of two major human TLR adaptor proteins, MAL^TIR and MyD88^TIR, allowing cross‐species selection of TIR‐binding motifs with 190 946 TIR‐derived peptides in a single binding assay (Scheme 1). Enriched phage pools from the fourth round of selection were analyzed using NGS after barcoding the peptide‐coding regions of the phage pools.
Phage display screening was performed by coating two wells of a 96‐well plate (Maxisorp, Thermo Fisher Scientific) with 100 µL of 5 µg mL^−1 TIR domains overnight; then, the coated wells were blocked with 200 µL of blocking buffer (0.2% BSA in PBS) and set aside for 1 h at 4 °C with gentle shaking. Next, 100 µL of the phage library was added to the wells and incubated for 1 h at room temperature (RT; 20 – 22 °C) with gentle shaking. The plate was washed four times with PBS containing 0.5% Tween‐20; the bound phages were eluted by adding 100 µL of 100 mM HCl to each well. The elute was neutralized with 10 µL of 1.0 M Tris‐HCl (pH 11.0). E. coli TG1 cells were grown to the log phase (A600 = ≈0.6), and 1 mL of the culture was incubated with 100 µL of the eluted phages for 30 min at 37 °C, with shaking at 200 rpm. Next, 1 µL of M13KO7 helper phages was added, followed by incubation for 45 min at 37 °C, with shaking. Subsequently, the cells were transferred to 25 mL of 2× yeast extract tryptone/carbenicillin/kanamycin medium and incubated overnight at 37 °C with shaking at 200 rpm. The amplified phages were precipitated with 20% PEG‐8000/2.5 M NaCl to be used for the next round of selection.
The naïve T‐Surf libraries in P8 and P3 and the enriched phage pools after four rounds were barcoded for NGS as previously described.^[ [59] ^] Briefly, 5 µL of the phage pool was used as a template for 20 cycles of a 50 µL PCR reaction using […] each of forward and reverse barcoded primers and PrimeSTAR Max DNA Polymerase. The PCR products were purified using Expin Gel SV (GeneAll). The NGS samples were quantified using qPCR, following the qPCR Quantification Protocol Guide (KAPA Library Quantification kits for Illumina Sequencing Platform), and qualified using the TapeStation High Sensitivity D1000 ScreenTape (Agilent Technologies). The indexed libraries were further sequenced by Macrogen (Seoul, Republic of Korea) using the NovaSeq platform (Illumina) with 100 bp paired‐end reads. The reads were demultiplexed by barcodes and filtered for an average Phred quality score of at least 30, followed by trimming the flanking consensus sequences using Cutadapt (version 2.3). Peptide sequence populations were analyzed according to the read counts.

[1] = selection against MyD88 TIR, rank by count after grouping
[2] = selection against MyD88 TIR, rank by count before grouping
[3] = P8_MyD88 pool: P8 T-Surf phage library
[4] = selection against MyD88, rank after grouping
[5] = selection against MyD88, rank before grouping
[6] = 4R selection against MyD88, rank after grouping
[7] = 4R selection against MyD88, rank before grouping
[8] = P3_MyD88: rank by count after grouping
[9] = P3_MyD88: rank by count before grouping
[10] = P8_MyD88: rank by count after grouping
[11] = P8_MyD88: rank by count before grouping
[12] = selection against MyD88, rank by count after grouping
[13] = selection against MyD88, rank by count before grouping
[14] = P8_MyD88: rank by NGS read count after grouping
[15] = P8_MyD88: rank by NGS read count before grouping

T1 sequence (Q99836 148-296): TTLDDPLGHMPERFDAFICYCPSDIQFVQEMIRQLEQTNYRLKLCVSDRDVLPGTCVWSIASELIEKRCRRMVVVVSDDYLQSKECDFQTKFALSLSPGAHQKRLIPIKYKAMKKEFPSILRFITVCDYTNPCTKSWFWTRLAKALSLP

With NQQRFGGKVDAWKAAL the “P3_MyD88 Rank (after)” value [1] was 281 and the “P3_MyD88 Rank (before)” value [2] was 3542.

DPQDLDWFYERLVNLF gave a Population [3] of 0.00925%.

With KFFLFFMILAFSMNR the “P8_MyD88 Rank (after)” value [4] was 487 and the “P8_MyD88 Rank (before)” value [5] was 3892.

In the case of IQCRNATSPAALLIGR, the “P8_MyD88 Rank (after)” value [6] is reported as 651 and the “P8_MyD88 Rank (before)” value [7] is reported as 3652.

For LKWEGPYFWRKMRYAL, the “Rank (after)” value [8] was 477 and the “Rank (before)” value [9] was 2457.

For YASYDDNDYYWVTPVLLRLV, the “Rank (after)” value [10] was 435 and the “Rank (before)” value [11] was 1767.

For YTALINSGFHTFRDNH, the “P3_MyD88 Rank (after)” value [1] was 273 and the “P3_MyD88 Rank (before)” value [2] was 1637.

PQDLDWFYDRLVSLIL was tested, and the “P8_MyD88 Rank (after)” value [6] was 589 and the “P8_MyD88 Rank (before)” value [7] was 3431.

For SRYREGLWRLLELSKK, the “Rank (after)” value [8] was 123 and the “Rank (before)” value [9] was 3109.

DTKLKKGESIAPELVL was tested, and the “Rank (after)” value [8] was 185 and the “Rank (before)” value [9] was 972.

In the case of SSFHEGLWRMLELSKK, the “P3_MyD88 Rank (after)” value [12] is reported as 737 and the “P3_MyD88 Rank (before)” value [13] is reported as 3250.

In the case of SPWALYELAMIIEAM, the “P8_MyD88 Rank (after)” value [4] is reported as 503 and the “P8_MyD88 Rank (before)” value [5] is reported as 3761.

For DTKLKKGESIAPERLP, the “Rank (after)” value [8] was 116 and the “Rank (before)” value [9] was 973.

WIWEKLKYALPHRYEP was tested, and the “P3_MyD88 Rank (after)” value [6] was 640 and the “P3_MyD88 Rank (before)” value [7] was 1424.

For LVAHELSNKMKSFATI, the “Rank (after)” value [8] was 386 and the “Rank (before)” value [9] was 2276.

With GTFIDYLYHRLMEEGI the “Rank (after)” value [10] was 107, the “Rank (before)” value [11] was 113 and the Population [3] was 0.02%.

YLKVESWRQALEKAGKL was tested, and the “P3_MyD88 Rank (after)” value [1] was 268 and the “P3_MyD88 Rank (before)” value [2] was 864.

For EWIREQFRRALKERLP, the “P3_MyD88 Rank (after)” value [4] was 503 and the “P3_MyD88 Rank (before)” value [5] was 2131.

In the case of AVDIETEKIQTPLKNA, the “Rank (after)” value [8] is reported as 157 and the “Rank (before)” value [9] is reported as 1891.

In the case of YLKWGYPWFWDRLP, the “Rank (after)” value [8] is reported as 142 and the “Rank (before)” value [9] is reported as 572.

With LADALERYGIMFIIDK the “Rank (after)” value [10] was 184 and the “Rank (before)” value [11] was 236.

In the case of LKVEGWRRALEKAGNL, the “Rank (after)” value [8] is reported as 467 and the “Rank (before)” value [9] is reported as 2470.

With SENYVTSPCAVDELVP the “P3_MyD88 Rank (after)” value [12] was 712 and the “P3_MyD88 Rank (before)” value [13] was 2957.

In the case of SSFREGLWRLQALSKK, the “Rank (after)” value [8] is reported as 458 and the “Rank (before)” value [9] is reported as 3185.

In the case of VANILGYHWIAREHFV, the “Rank (after)” value [10] is reported as 474 and the “Rank (before)” value [11] is reported as 2164.

DPQGLDWFYERLFSQM was tested, and the “Rank (after)” value [10] was 396 and the “Rank (before)” value [11] was 2679.

YTALANSGFHTFHDND was tested, and the “P3_MyD88 Rank (after)” value [6] was 613 and the “P3_MyD88 Rank (before)” value [7] was 1634.

LKVENWRQAMEKAGKL was tested, and the “Rank (after)” value [8] was 176 and the “Rank (before)” value [9] was 2525.

DSQVLDWFYERLVSLL was tested, and the “Rank (after)” value [14] was 982 and the “Rank (before)” value [15] was 2496.

HLRKEFDKRLITSFKD was tested, and the “Rank (after)” value [8] was 387 and the “Rank (before)” value [9] was 2800.

NVHESEIIKEIVDTIV was tested, and the Population (P3_MyD88 pool: P3 T-Surf phage library) was 0.00291%.

DPQLLVCFYERVVRMF was tested, and the “Rank (after)” value [14] was 1010 and the “Rank (before)” value [15] was 3025.

YQWRNALSAAANLCGW was tested, and the “P3_MyD88 Rank (after)” value [4] was 569 and the “P3_MyD88 Rank (before)” value [5] was 1617.

With SSFREGLWRLLEVSQK the “P3_MyD88 Rank (after)” value [1] was 199 and the “P3_MyD88 Rank (before)” value [2] was 3151.

For LTEEIVNHILKRLAEL, the “Rank (after)” value [10] was 170 and the “Rank (before)” value [11] was 200.

In the case of NDSLFWDRLLYSLHVTE, the “Rank (after)” value [10] is reported as 187 and the “Rank (before)” value [11] is reported as 270.

LFWDRLIYAVSDVASA was tested, and the “Rank (after)” value [10] was 111, the “Rank (before)” value [11] was 119 and the Population [3] was 0.02%.

For KEREFGAQRAGKWRAA, the “P3_MyD88 Rank (after)” value [6] was 670 and the “P3_MyD88 Rank (before)” value [7] was 3663.

With SENYATSPWALTELVH the “P3_MyD88 Rank (after)” value [1] was 278 and the “P3_MyD88 Rank (before)” value [2] was 2986.

SSFRKGLWRLLELLKK was tested, and the “Rank (after)” value [8] was 150 and the “Rank (before)” value [9] was 3231.

GRYEELFMTETDERLP was tested, and the “P3_MyD88 Rank (after)” value [12] was 735 and the “P3_MyD88 Rank (before)” value [13] was 1853.

In the case of YTALTNRGFHTFRDHH, the “P3_MyD88 Rank (after)” value [12] is reported as 687 and the “P3_MyD88 Rank (before)” value [13] is reported as 1651.

With DPQGLAWFYERLVSLL the “Rank (after)” value [10] was 443 and the “Rank (before)” value [11] was 2664.

SENYATSPWALDELLIAIEE was tested, and the “P3_MyD88 Rank (after)” value [4] was 519 and the “P3_MyD88 Rank (before)” value [5] was 2979.

In the case of DPQDLVWFYERPVSIF, the “Rank (after)” value [14] is reported as 909 and the “Rank (before)” value [15] is reported as 2712.

For AVDKETDKIQTPLKAQ, the “Rank (after)” value [8] was 390 and the “Rank (before)” value [9] was 1919.

QYLRWPEDFQDVGWFL was tested, and the “Rank (after)” value [10] was 144, the “Rank (before)” value [11] was 161 and the Population [3] was 0.00925%.

With SSFRECLWRLEELSKK the “Rank (after)” value [8] was 457 and the “Rank (before)” value [9] was 3136.

For WFLEPLEKILQAHGTT, the “P8_MyD88 Rank (after)” value [6] was 600 and the “P8_MyD88 Rank (before)” value [7] was 1360.

With NQWLNSLTAPANPSDW the “Rank (after)” value [8] was 396 and the “Rank (before)” value [9] was 3469.

For LKEEHCHQALEKAGKL, the “Rank (after)” value [8] was 460 and the “Rank (before)” value [9] was 2535.

With LGYHWVDWGCFVGIAD the “Rank (after)” value [14] was 958 and the “Rank (before)” value [15] was 3232.

With DWEWDYRLPNLEGPPG the “Rank (after)” value [14] was 891 and the “Rank (before)” value [15] was 2486.

FDASSSWALDELLRILY was tested, and the “Rank (after)” value [10] was 404 and the “Rank (before)” value [11] was 813.

In the case of DWVWEHFVGIEDHIK, the “P8_MyD88 Rank (after)” value [4] is reported as 513 and the “P8_MyD88 Rank (before)” value [5] is reported as 2472.

With KEVEGWRDALTKVACR the “Rank (after)” value [8] was 109 and the “Rank (before)” value [9] was 1305.

With YAFTGHLRKQSGEFG the “P3_MyD88 Rank (after)” value [4] was 486 and the “P3_MyD88 Rank (before)” value [5] was 1491.

For LKWGDPAYRLALHYRDFN, the “P3_MyD88 Rank (after)” value [4] was 500 and the “P3_MyD88 Rank (before)” value [5] was 2445.

In the case of DPQDLEWFYERLGSLF, the “P8_MyD88 Rank (after)” value [1] is reported as 247 and the “P8_MyD88 Rank (before)” value [2] is reported as 2852.

GPQELEWCYERLVTKF was tested, and the “P8_MyD88 Rank (after)” value [6] was 604 and the “P8_MyD88 Rank (before)” value [7] was 2278.

With SSFREGLWRLLKLNKK the “P3_MyD88 Rank (after)” value [1] was 266 and the “P3_MyD88 Rank (before)” value [2] was 3181.

In the case of ELDFSHFWLFDGHATGAA, the “Rank (after)” value [14] is reported as 1003 and the “Rank (before)” value [15] is reported as 3187.

In the case of ISYRQGRWRLLELSKK, the “Rank (after)” value [8] is reported as 461 and the “Rank (before)” value [9] is reported as 2919.

With RISAFHQQLVMALNTQ the “P3_MyD88 Rank (after)” value [6] was 614 and the “P3_MyD88 Rank (before)” value [7] was 2599.
